# Source: paper PMC8252455, “Prediction of a clinically effective dose of THY1773, a novel V 1B receptor antagonist, based on preclinical data” (Biopharmaceutics & Drug Disposition, 2021)
# Several values for one entry are separate records, joined by “and”; a condition that tells them apart may be missing. Equal entries are not always repeated.
# How the values were obtained:
# [1] = target: T1, rat anterior pituitary membrane V1B receptor (Rattus norvegicus, UniProt P48974); assay: In vitro binding, rat anterior pituitary membrane V1B receptor; settings: unpublished data
# T1 construct: rat anterior pituitary membrane V1B receptor; from tissue; host or cells: rat anterior pituitary membranes
# T1 sequence (P48974 1-425): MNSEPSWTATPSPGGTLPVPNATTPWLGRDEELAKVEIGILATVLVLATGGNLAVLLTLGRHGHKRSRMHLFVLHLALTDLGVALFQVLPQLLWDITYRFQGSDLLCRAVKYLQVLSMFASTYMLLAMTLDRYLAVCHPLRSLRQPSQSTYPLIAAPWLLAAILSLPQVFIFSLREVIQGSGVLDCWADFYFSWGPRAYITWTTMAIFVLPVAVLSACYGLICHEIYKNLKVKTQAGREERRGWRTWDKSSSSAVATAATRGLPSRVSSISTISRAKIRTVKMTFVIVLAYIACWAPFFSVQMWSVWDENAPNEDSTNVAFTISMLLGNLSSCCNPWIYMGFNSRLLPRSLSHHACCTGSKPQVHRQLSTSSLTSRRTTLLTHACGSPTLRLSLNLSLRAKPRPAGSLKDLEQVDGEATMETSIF
# [2] = Blood-to-plasma ratio in human whole blood; assay type: in vitro ADME; settings: 1 μmol/L
# Procedure: The blood‐to‐plasma ratios of THY1773 were analyzed using pooled fresh whole blood (anticoagulant: EDTA‐2K) and control plasma separated from fresh whole blood in parallel from rats, dogs, and humans. Whole blood and control plasma containing 1 μmol/L THY1773 were incubated at 37°C for 30 min in a shaking water bath. The incubated whole blood was centrifuged at 2000 × g for 10 min at 4°C to obtain plasma. An aliquot of each plasma sample (i.e., isolated plasma from incubated whole blood and control plasma) was mixed with 8 volumes of acetonitrile/methanol (9:1, vol/vol) containing the IS. After centrifugation at 3974 × g for 10 min at 4°C, the supernatant was subjected to liquid chromatography/tandem mass spectrometry (LC‐MS/MS) analysis. The blood‐to‐plasma ratio was calculated by dividing the […].
# [3] = PK and urinary excretion in dogs; assay type: in vivo, dog
# Procedure: The PK and urinary excretion of THY1773 in rats (1 mg/kg) and dogs (0.5 mg/kg) under fasted conditions were evaluated following intravenous or oral administration of THY1773. THY1773 was dissolved in 10% (vol/vol) hydroxypropyl‐β‐cyclodextrin at pH 4 for intravenous administration, or suspended in 0.5% (wt/vol) methyl cellulose 400 for oral administration. After a single intravenous or oral administration of THY1773, blood samples were collected into tubes containing EDTA‐2K as an anticoagulant. The scheduled time points were predose (dog only), 5 (intravenous only), 15, 30 min, 1, 2, 4, 8, 12, and 24 h postdose. Plasma was separated by centrifugation. Urine samples were collected into bottles set on ice for 24 h after intravenous administration of THY1773. Plasma and urine samples were treated with 4 volumes of acetonitrile/methanol (9:1, vol/vol) containing the IS. After centrifugation (3639 × g, 4°C, 10 min) to remove precipitated proteins, the supernatant was subjected to LC‐MS/MS analysis. The distributions of THY1773 into brain and pituitary gland in rats were investigated after a single oral administration of THY1773 (1 mg/kg). Blood was collected from the tail vein into tubes containing EDTA‐2K at 1 h after a single oral administration of THY1773, and the plasma was separated by centrifugation (12000 × g, 4°C, 3 min). After blood collection, the brain and pituitary gland were excised followed by homogenization with approximately 4 volumes of distilled water. Plasma, brain, and pituitary samples were treated with 4 volumes of acetonitrile/methanol (9:1, vol/vol) containing the IS and centrifuged (3639 × g, 4°C, 10 min). Aliquots of the supernatant were subjected to LC‐MS/MS analysis.
# (§1) The plasma concentration–time profiles of THY1773 were analyzed by a non‐compartmental analysis with PK analysis software Phoenix WinNonlin® (version 6.1; Certara), and the PK parameters were calculated. The fraction excreted in urine was calculated by dividing the amount of THY1773 excreted in urine by the administered dose.
# [4] = Phase 1 single ascending dose study of TS-121 capsules; assay type: in vivo, human
# Procedure: as §1
# A first‐in‐human, randomized, double‐blind, placebo‐controlled, adaptive, single‐ascending dose study was conducted to evaluate the safety, tolerability, and PK of single oral doses of TS‐121 capsules in the United States. This study was conducted in accordance with the ethical principles of the Declaration of Helsinki, International Council for Harmonization Good Clinical Practice Guidelines, and the United States Food and Drug Administration Code of Federal Regulations. The study was approved by an institutional ethical review board. All subjects provided written informed consent before participating in the study. Sixty‐eight healthy male or female volunteers were enrolled and received a single oral dose of either TS‐121 capsules (0.5, 2.5, 4, 8, 15, 30, or 50 mg as THY1773/day) or placebo in a 3:1 ratio in a fasted state.
# Blood samples were collected at predose and 0.25, 0.5, 0.75, 1, 1.5, 2, 3, 4, 6, 8, 10, 12, 24, 36, and 48 h postdose. Urine samples were collected before dosing and at the following time intervals after dosing: 0–6, 6–12, 12–24, 24–36, and 36–48 h. THY1773 plasma and urine concentrations were determined by validated LC‐MS/MS methods. PK parameters were evaluated following the method as described in Section 2.5 PK analysis.
# [5] = target: anterior pituitary V1B receptor; assay: Rat V1B RO study using a tritium labeled V1B receptor ligand; settings: in vivo; estimated from RO study of Kamiya et al., 2020
# plasma ACTH = tested on: plasma ACTH; design: method as in Kamiya et al., 2020; settings: rats, oral, doses with >50% V1B occupancy; ref Kamiya et al., 2020; cited from earlier work
# [6] = male dogs, iv 0.5 mg/kg, mean (%CV), n=3
# [7] = male dogs, po 0.5 mg/kg, mean (%CV), n=3
# [8] = human, average over dose range 0.5 to 50 mg
# [9] = human, single oral 30 mg, fasted, mean
compound,measurement,setting,value
CC(C)NC(=O)Cn1c(-c2cccc(Cl)c2)nn(-c2ccc(CCN3CCOCC3)cc2)c1=O [THY1773],Ki,[1],80.1 nM
same,Blood-to-plasma ratio,[2],Theoretical limit (experimental data: 0.54)
same,CLrenal compared with fu × GFR,[3]; dogs,comparable to fu × GFR
same,CLtotal as share of hepatic blood flow,"[3]; dogs, single intravenous administration",approximately 30 % of hepatic blood flow
same,Urinary excretion of unchanged drug,"[3]; dogs, within 24 h post intravenous dosing",2.0%
same,AUC0‐∞,[3]; [6],664 (23.7) h·ng/ml
same,CLtotal,[3]; [6],785 (26.4) ml/h/kg
same,Vdss,[3]; [6],2020 (37.6) ml/kg
same,t1/2,[3]; [6],3.07 (59.3) h
same,AUC0‐∞,[3]; [7],307 (37.7) h·ng/ml
same,Cmax,[3]; [7],105 (12.3) ng/ml
same,F (oral bioavailability),[3]; [7],45.0 (16.6) %
same,t1/2,[3]; [7],2.40 (81.2) h
same,tmax,[3]; [7],0.500 (0.0) h
same,Observed CLrenal compared with predicted value,[4]; human,lower than the predicted value
same,Observed oral blood CL as share of hepatic blood flow,[4]; human,2.6 % of the hepatic blood flow
same,Apparent volume of distribution during the terminal phase,[4]; [8],40.6 L
same,Oral CLtotal,[4]; [8],1.32 L/h
same,Dose linearity of PK,"[4]; human, dose range 0.5–50 mg",linear PK
same,AUC0‐∞,[4]; [9],21340 ng·h/mL
same,CLpo,[4]; [9],1.52 L/h
same,Cmax,[4]; [9],949 ng/mL
same,Vdz/F,[4]; [9],43.6 L
same,tmax,"[4]; human, single oral 30 mg, fasted, median",1.3 h and 1.27 h
same,Urinary excretion of unchanged drug,"[4]; human, within 48 h post oral dosing, average over dose range",4.2%
same,Observed human CLtotal/F,"[4]; oral, phase 1 study",0.287 mL/min/kg
same,Observed human Vdz/F,"[4]; oral, phase 1 study",0.528 L/kg
same,EC50,[5],4.8 nM
same,Effect on increase in plasma ACTH induced by CRF/desmopressin challenge,plasma ACTH,significantly inhibited
